Test results reported in US4921866A, “1,3-dioxanes” (Imperial Chemical Industries plc, priority 1987, dated 1990).
Entries after “also recorded” stand apart in the source; their conditions may differ.

How the values were obtained:
TXA2 receptor [1] = target: T1, TXA2 receptor (Rattus norvegicus, UniProt P34978); assay: test (a): rat aortic strip model, U46619 as agonist; format: cell-based; conditions: read-out: pA2 (converted)
T1 construct: The rat aortic strip model; from tissue; host or cells: rat aortic strip
T1 sequence (P34978 1-341): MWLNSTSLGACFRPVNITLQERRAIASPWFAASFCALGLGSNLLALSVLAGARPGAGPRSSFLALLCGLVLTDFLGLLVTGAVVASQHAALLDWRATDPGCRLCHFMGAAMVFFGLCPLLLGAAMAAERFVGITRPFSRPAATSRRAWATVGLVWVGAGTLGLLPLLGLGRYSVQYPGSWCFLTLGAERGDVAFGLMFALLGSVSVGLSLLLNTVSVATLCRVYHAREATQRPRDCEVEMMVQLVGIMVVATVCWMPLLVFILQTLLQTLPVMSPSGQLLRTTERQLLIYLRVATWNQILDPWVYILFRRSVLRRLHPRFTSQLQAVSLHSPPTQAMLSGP
Excerpt: (a) The rat aortic strip model (based on that devised by Piper and Vane (Nature, 1969, 223, 29-35) in the rabbit) using as agonist the TXA2 mimetic agent known as U46619 (described by R. L. Jones et alia in "Chemistry, Biochemistry and Pharmacological Activity of Prostanoids" edited by S. M. Roberts and F. Scheinmann, at page 211; Pergamon Press, 1979);

TXA2 receptor [2] = target: T2, TXA2 receptor (Homo sapiens, UniProt P21731); assay: test (b): blood platelet aggregation test, U46619 stimulated, human platelet-rich plasma; format: cell-based
T2 construct: aggregating human, citrated, platelet-rich plasma; endogenous in cells; host or cells: human platelets in citrated platelet-rich plasma
T2 sequence (P21731 1-343): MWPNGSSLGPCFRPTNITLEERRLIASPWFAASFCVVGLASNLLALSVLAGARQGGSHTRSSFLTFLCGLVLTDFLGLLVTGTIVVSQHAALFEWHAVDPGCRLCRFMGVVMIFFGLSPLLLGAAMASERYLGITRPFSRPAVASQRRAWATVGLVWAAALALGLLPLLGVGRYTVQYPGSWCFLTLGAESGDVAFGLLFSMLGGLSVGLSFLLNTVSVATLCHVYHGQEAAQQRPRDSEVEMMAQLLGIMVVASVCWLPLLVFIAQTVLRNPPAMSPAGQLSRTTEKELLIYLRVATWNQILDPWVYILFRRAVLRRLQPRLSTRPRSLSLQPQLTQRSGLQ
Excerpt: (b) a blood platelet aggregation test based on that described by Born (Nature, 1962, 194, 927-929) and involving:
(i) aggregating human, citrated, platelet-rich plasma by addition of the TXA2 mimetic agent U46619 so that a dose-response curve is generated;
(ii) generating a dose-response curve for U46619 stimulated platelet aggregation in the presence of increasing amounts of test compound (generally in the range 10^-5 M to 10^-10 M); and
(iii) calculating a KB value indicating potency of TXA2 antagonism for the test compound, average over several concentrations, from the calculated 50% response value for U46619 aggregation in the presence and absence of test compound; or […]

TXA2 synthase [3] = target: T3, TXA2 synthase (Homo sapiens, UniProt P24557); assay: test (e): in vitro TXA2 synthase inhibition, human platelet microsomal TXA2 synthase preparation; format: biochemical
T3 construct: using a human platelet microsomal TXA2 synthase preparation; from tissue; host or cells: human platelet microsomes
T3 sequence (P24557 1-533): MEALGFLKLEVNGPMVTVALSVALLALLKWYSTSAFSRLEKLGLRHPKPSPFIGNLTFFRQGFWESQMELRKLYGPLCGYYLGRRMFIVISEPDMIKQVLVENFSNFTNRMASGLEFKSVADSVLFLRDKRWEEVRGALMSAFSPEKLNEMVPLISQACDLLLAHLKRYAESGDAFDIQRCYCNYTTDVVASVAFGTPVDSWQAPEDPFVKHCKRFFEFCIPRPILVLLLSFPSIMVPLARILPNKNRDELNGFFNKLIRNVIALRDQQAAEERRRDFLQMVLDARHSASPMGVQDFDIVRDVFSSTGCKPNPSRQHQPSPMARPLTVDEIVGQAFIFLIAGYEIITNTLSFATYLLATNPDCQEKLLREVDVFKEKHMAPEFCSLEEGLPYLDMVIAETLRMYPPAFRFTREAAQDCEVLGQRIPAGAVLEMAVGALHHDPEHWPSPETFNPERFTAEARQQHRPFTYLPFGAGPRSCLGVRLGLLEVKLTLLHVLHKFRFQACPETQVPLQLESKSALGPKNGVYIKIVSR

TXA2 synthase [4] = assay: test (f): TXB2 production in blood samples from dosed laboratory animals; format: in vivo, rat; conditions: 3 hours following an oral dose of 100 mg/kg to rats
Method: (§1) The samples treated with anti-coagulant are first incubated at 37° C. with collegen (at about 100 micro M), then mixed with the cyclooxygenase inhibitor indomethancin (at about […]), centrifuged and the level of the TXA2 metabolite TXB2 determined by a standard radioimmunoassay technique. By comparison of the amount of TXB2 present in the plasma from animals dosed with test compound with that in the plasma of a control group dosed with placebo, the TXA2 synthase inhibitory properties may be assessed.

[5] = observation of signs of toxicity in rats in test (f); format: in vivo, rat; conditions: oral dose of 100 mg/kg to rats
[6] = TXA2 antagonist and/or TXA2 synthase inhibitory properties (general statement, standard tests); conditions: qualitative statement
Method: as §1

SMILES: O=C(O)CC/C=C\C[C@@H]1CO[C@H](c2cccnc2)O[C@@H]1c1ccccc1O (relative stereo) [Example 1, 4(Z)-6-([2,4,5-cis]-4-o-hydroxyphenyl-2-[3-pyridyl]-1,3-dioxan-5-yl)hexenoic acid]
- Kb (TXA2 receptor [1]): 79.4 nM
- Kb (TXA2 receptor [2]): 17 nM
- IC50 (TXA2 synthase [3]): 3140 nM
- inhibition of TXB2 production (TXA2 synthase [4]): essentially complete inhibition of TXB2 production
- observable signs of toxicity to the test animals [5]: without any observable signs of toxicity
- TXA2 antagonist and/or TXA2 synthase inhibitory properties [6]: combined antagonist and TXA2 synthase inhibitory properties; also recorded: both TXA2 antagonist and TXA2 synthase inhibitory properties

SMILES: O=C(O)CCC/C=C\C[C@@H]1CO[C@H](Cc2cccnc2)O[C@@H]1c1ccccc1O (relative stereo) [Example 2, 5(Z)-7-([2,4,5-cis]-4-o-hydroxyphenyl-2-[3-pyridylmethyl]-1,3-dioxan-5-yl)heptenoic acid]
- TXA2 antagonist and/or TXA2 synthase inhibitory properties [6]: combined antagonist and TXA2 synthase inhibitory properties

SMILES: O=C(O)CC/C=C\C[C@@H]1CO[C@H](c2ccccn2)O[C@@H]1c1ccccc1O (relative stereo) [Example 4, 4(Z)-6-([2,4,5-cis]-4-o-hydroxyphenyl-2-[2-pyridyl]-1,3-dioxan-5-yl)hexenoic acid]
- TXA2 antagonist and/or TXA2 synthase inhibitory properties [6]: TXA2 antagonist properties

SMILES: O=C(O)CCCC/C=C\C[C@@H]1CO[C@H](c2ccncc2)O[C@@H]1c1ccccc1O (relative stereo) [Example 9, 6(Z)-8-([2,4,5-cis]-4-o-hydroxyphenyl-2-[4-pyridyl]-1,3-dioxan-5-yl)octenoic acid]
- TXA2 antagonist and/or TXA2 synthase inhibitory properties [6]: predominantly TXA2 synthase inhibitory properties

SMILES: O=C(O)CC/C=C\C[C@@H]1CO[C@H](Cc2ccccn2)O[C@@H]1c1ccccc1O (relative stereo) [Example 11, 4(Z)-6-([2,4,5-cis]-4-o-hydroxyphenyl-2-[2-pyridylmethyl]-1,3-dioxan-5-yl)hexenoic acid]
- TXA2 antagonist and/or TXA2 synthase inhibitory properties [6]: TXA2 antagonist properties

SMILES: O=C(O)CC/C=C\C[C@@H]1CO[C@H](Cc2cccnc2)O[C@@H]1c1ccccc1O (relative stereo) [Example 12, 4(Z)-6-([2,4,5-cis]-4-o-hydroxyphenyl-2-[3-pyridylmethyl]-1,3-dioxan-5-yl)hexenoic acid]
- TXA2 antagonist and/or TXA2 synthase inhibitory properties [6]: combined antagonist and TXA2 synthase inhibitory properties

SMILES: O=C(O)CCC/C=C\C[C@@H]1CO[C@H](Cc2cccnc2)O[C@@H]1c1ccccc1 (relative stereo) [Example 16, 5(Z)-7-(4-phenyl-2-[3-pyridylmethyl]-1,3-dioxan-5-yl)heptenoic acid]
- TXA2 antagonist and/or TXA2 synthase inhibitory properties [6]: predominantly TXA2 synthase inhibitory properties

SMILES: CC(C)(c1cccnc1)[C@H]1OC[C@@H](C/C=C\CCC(=O)O)[C@@H](c2ccccc2O)O1 (relative stereo) [Example 17, 4(Z)-6-([2,4,5-cis]-4-o-hydroxyphenyl-2-[1-(3-pyridyl)-1-methylethyl]-1,3-dioxan-5-yl)hexenoic acid]
- TXA2 antagonist and/or TXA2 synthase inhibitory properties [6]: combined antagonist and TXA2 synthase inhibitory properties

SMILES: CC(C)(Cc1cccnc1)[C@H]1OC[C@@H](C/C=C\CCC(=O)O)[C@@H](c2ccccc2O)O1 (relative stereo) [Example 18, 4(Z)-6-([2,4,5-cis]-4-o-hydroxyphenyl-2-[2-(3-pyridyl)-1,1-dimethylethyl]-1,3-dioxan-5-yl)hexenoic acid]
- TXA2 antagonist and/or TXA2 synthase inhibitory properties [6]: combined antagonist and TXA2 synthase inhibitory properties

SMILES: CC(C)(c1cccnc1)[C@H]1OC[C@@H](C/C=C\CCCC(=O)O)[C@@H](c2ccccc2O)O1 (relative stereo) [Example 19, 5(Z)-7-([2,4,5-cis]-4-o-hydroxyphenyl-2[1-(3-pyridyl)-1-methylethyl]-1,3-dioxan-5-yl)heptenoic acid]
- TXA2 antagonist and/or TXA2 synthase inhibitory properties [6]: combined antagonist and TXA2 synthase inhibitory properties

SMILES: CC(C)(Oc1cccnc1)[C@H]1OC[C@@H](C/C=C\CCC(=O)O)[C@@H](c2ccccc2O)O1 (relative stereo) [Example 23, 4(Z)-6-([2,4,5-cis]-4-o-hydroxyphenyl-2-[1-(3-pyridyloxy)-1-methylethyl]-1,3-dioxan-5-yl)hexenoic acid]
- TXA2 antagonist and/or TXA2 synthase inhibitory properties [6]: combined antagonist and TXA2 synthase inhibitory properties
